A word on the melting point: it is the temperature of the solid-liquid transition.

Regarding `CC(C)n1nc(-c2nc(NCc3ccccn3)c(N)nc2-c2ccccc2)ccc1=O` [Example 98, 6-{5-amino-3-phenyl-6-[(2-pyridylmethyl)amino]-2-pyrazinyl}-2-isopropyl-3(2H)-pyridazinone], the melting point lay within 192 to 194 °C. As for `COc1ccc(CNc2nc(-c3ccccc3)c(-c3ccc(=O)n(C)n3)nc2C#N)cc1` [Example 16, 3-[(4-Methoxybenzyl)amino]-6-(1-methyl-6-oxo-1,6-dihydro-3-pyridazinyl)-5-phenyl-2-pyrazinecarbonitrile], the melting point is 166.5 to 168 °C. Regarding `CCCCNc1nc(-c2ccc(=O)n(C)n2)c(-c2ccccc2)nc1N` [Example 100, 6-[5-amino-6-(butylamino)-3-phenyl-2-pyrazinyl]-2-methyl-3(2H)-pyridazinone], the melting point was 253 to 255 °C. `CC(C)n1nc(-c2nc(NC3CCN(Cc4ccccc4)CC3)c(N)nc2-c2ccccc2)ccc1=O` [Example 107, 6-{5-amino-6-[(1-benzyl-4-piperidinyl)amino]-3-phenyl-2-pyrazinyl}-2-isopropyl-3(2H)-pyridazinone]: the melting point lay within 214 to 216.5 °C. The compound `CC(C)n1nc(-c2nc(N3CCN4CCCC4C3)c(N)nc2-c2ccccc2)ccc1=O` (centres unmarked) [Example 118, 6-[5-amino-6-(hexahydropyrrolo[1,2-a]pyrazin-2(1H)-yl)-3-phenyl-2-pyrazinyl]-2-isopropyl-3(2H)-pyridazinone] came in with a melting point of 205 to 207.5 °C. `Cn1nc(-c2nc(NCc3ccco3)c(N)nc2-c2ccccc2)ccc1=O` [Example 124, 6-{5-amino-6-[(2-furylmethyl)amino]-3-phenyl-2-pyrazinyl}-2-methyl-3(2H)-pyridazinone] had a melting point of 249 to 252 °C. `CC(C)n1nc(-c2nc(-n3ccnc3)c(N)nc2-c2ccccc2)ccc1=O` [Example 150, 6-[5-amino-6-(1H-imidazol-1-yl)-3-phenyl-2-pyrazinyl]-2-isopropyl-3(2H)-pyridazinone] returned a melting point above 250 °C. Take `CC(C)n1nc(-c2nc(-n3cccc3)c(N)nc2-c2ccccc2)ccc1=O` [Example 147, 6-[5-amino-3-phenyl-6-(1H-pyrrol-1-yl)-2-pyrazinyl]-2-isopropyl-3(2H)-pyridazinone]: the melting point was 132 to 136 °C. With `Cn1nc(-c2ncc(N)nc2-c2ccccc2)ccc1=O` [Example 20, 6-(5-Amino-3-phenyl-2-pyrazinyl)-2-methyl-3(2H)-pyridazinone], the melting point was 202 to 204 °C. `Cn1nc(-c2nc(NCCCc3ccccc3)c(N)nc2-c2ccccc2)ccc1=O` [Example 126, 6-{5-amino-3-phenyl-6-[(3-phenylpropyl)amino]-2-pyrazinyl}-2-methyl-3(2H)-pyridazinone] registered a melting point of 196 to 197.5 °C. Compound `Cn1nc(-c2nc(NCCc3ccccc3)c(N)nc2-c2ccccc2)ccc1=O` [Example 125, 6-{5-amino-3-phenyl-6-[(2-phenylethyl)amino]-2-pyrazinyl}-2-methyl-3(2H)-pyridazinone] had a melting point of 232 to 234 °C. Take `Cn1nc(-c2nc(C#Cc3ccccc3)c(N)nc2-c2ccccc2)ccc1=O` [Example 77, 6-[5-amino-3-phenyl-6-(phenylethynyl)-2-pyrazinyl]-2-methyl-3(2H)-pyridazinone]: the melting point lay within 234 to 236 °C.

For the compound `Cn1nc(-c2nc(NC3CCN(Cc4ccccc4)CC3)c(N)nc2-c2ccccc2)ccc1=O` [Example 129, 6-{5-amino-6-[(1-benzyl-4-piperidinyl)amino]-3-phenyl-2-pyrazinyl}-2-methyl-3(2H)-pyridazinone], the melting point lay in the range of 191 to 194 °C. Consider `CC(C)n1nc(-c2nc(OC3CCN(Cc4ccccc4)CC3)c(N)nc2-c2ccccc2)ccc1=O` [Example 178, 6-{5-amino-6-[(1-benzyl-4-piperidinyl)oxy]-3-phenyl-2-pyrazinyl}-2-isopropyl-3(2H)-pyridazinone], for which the melting point was 148 to 150.5 °C. In turn, `CC(C)n1nc(-c2nc(Br)c(N=O)nc2-c2ccccc2)ccc1=O` [Example 67, 6-(6-bromo-5-nitroso-3-phenyl-2-pyrazinyl)-2-isopropyl-3(2H)-pyridazinone] registered a melting point of 164 to 166 °C.

As to `Cc1nc(-c2ccc(=O)n(C(C)C)n2)c(-c2ccccc2)nc1O` [Example 2, 6-(5-Hydroxy-6-methyl-3-phenyl-2-pyrazinyl)-2-isopropyl-3(2H)-pyridazinone], the melting point is above 250 °C. As to `COc1ccc(CN(Cc2ccc(OC)cc2)c2nc(-c3ccccc3)c(-c3ccc(=O)n(C(C)C)n3)nc2C#N)cc1` [Example 51, 3-[bis(4-methoxybenzyl)amino]-6-(1-isopropyl-6-oxo-1,6-dihydro-3-pyridazinyl)-5-phenyl-2-pyrazinecarbonitrile], the melting point was in the range of 207 to 209 °C. Consider `CC(C)n1nc(-c2nc(-c3ccsc3)c(N)nc2-c2ccccc2)ccc1=O` [Example 79, 6-[5-amino-3-phenyl-6-(3-thienyl)-2-pyrazinyl]-2-isopropyl-3(2H)-pyridazinone], for which the melting point is 228 to 230 °C. The compound `CC(C)n1nc(-c2nc(C(N)=O)c(N)nc2-c2ccccc2Br)ccc1=O` [Example 190, 3-amino-5-(2-bromophenyl)-6-(1-isopropyl-6-oxo-1,6-dihydro-3-pyridazinyl)-2-pyrazinecarboxamide] yielded a melting point of 132 to 135 °C. The compound `CC(C)n1nc(-c2nc(N3CCCCC3)c(N)nc2-c2ccccc2)ccc1=O` [Example 108, 6-[5-amino-3-phenyl-6-(1-piperidinyl)-2-pyrazinyl]-2-isopropyl-3(2H)-pyridazinone] had a melting point of 183 to 185 °C. `COc1ccc(CNc2cnc(-c3ccc(=O)n(C(C)C)n3)c(-c3ccccc3)n2)cc1` [Example 49, 2-isopropyl-6-{5-[(4-methoxybenzyl)amino]-3-phenyl-2-pyrazinyl}-3(2H)-pyridazinone] yielded a melting point of 138 to 140 °C. For `CC(C)n1nc(-c2nc(C3=CCN(C)CC3)c(N)nc2-c2ccccc2)ccc1=O`, the melting point fell in the range of 209 to 211 °C. `Cn1nc(-c2nc(O)c(N)nc2-c2ccccc2)ccc1=O` [Example 187, 6-(5-amino-6-hydroxy-3-phenyl-2-pyrazinyl)-2-methyl-3(2H)-pyridazinone] registered a melting point above 250 °C.

As to `CN(C)c1nc(-c2ccc(=O)n(C)n2)c(-c2ccccc2)nc1N` [Example 144, 6-[5-amino-6-(dimethylamino)-3-phenyl-2-pyrazinyl]-2-methyl-3(2H)-pyridazinone], the melting point lay in the range of 150 to 152 °C.

Compound `Cn1nc(-c2nc(NCc3ccccc3)c(N)nc2-c2ccccc2)ccc1=O` [Example 144, 6-[5-amino-6-(benzylamino)-3-phenyl-2-pyrazinyl]-2-methyl-3(2H)-pyridazinone] showed a melting point above 250 °C. Regarding `CC(C)n1nc(-c2ncc(N)nc2-c2ccccc2)ccc1=O` [Example 9, 6-(5-amino-3-phenyl-2-pyrazinyl)-2-isopropyl-3(2H)-pyridazinone], the melting point was 204 to 206 °C. The compound `CC(C)n1nc(-c2nc(C#Cc3ccccn3)c(N)nc2-c2ccccc2)ccc1=O` [Example 74, 6-[5-amino-3-phenyl-6-(2-pyridylethynyl)-2-pyrazinyl]-2-isopropyl-3(2H)-pyridazinone] had a melting point of 245.5 to 247 °C.

Compound `COCCNc1nc(-c2ccc(=O)n(C(C)C)n2)c(-c2ccccc2)nc1N` [Example 102, 6-{5-amino-6-[(2-methoxyethyl)amino]-3-phenyl-2-pyrazinyl}-2-isopropyl-3(2H)-pyridazinone] had a melting point of 208 to 209.5 °C. In turn, `CCCCNc1nc(-c2ccc(=O)n(C(C)C)n2)c(-c2ccccc2)nc1N` [Example 99, 6-[5-amino-6-(butylamino)-3-phenyl-2-pyrazinyl]-2-isopropyl-3(2H)-pyridazinone] yielded a melting point of 200 to 202 °C.

Compound `CCn1nc(-c2nc(C#N)c(C#N)nc2-c2ccccc2)ccc1=O` [Example 11, 5-(1-Ethyl-6-oxo-1,6-dihydro-3-pyridazinyl)-6-phenyl-2,3-pyrazinedicarbonitrile] registered a melting point of 201 to 203 °C.

In turn, `COc1nc(-c2ccc(=O)n(C(C)C)n2)c(-c2ccccc2)nc1N` [Example 157, 6-(5-amino-6-methoxy-3-phenyl-2-pyrazinyl)-2-isopropyl-3(2H)-pyridazinone] came in with a melting point of 211 to 214 °C. In turn, `COc1ccc(CNc2cnc(-c3ccccc3)c(-c3ccc(=O)n(C(C)C)n3)n2)cc1` [Example 49, 2-isopropyl-6-{6-[(4-methoxybenzyl)amino]-3-phenyl-2-pyrazinyl}-3(2H)-pyridazinone] registered a melting point of 173 to 174 °C.

For `CC(C)n1nc(-c2nc(Sc3ccc(F)cc3)c(N)nc2-c2ccccc2)ccc1=O` [Example 159, 6-{5-amino-6-[(4-fluorophenyl)thio]-3-phenyl-2-pyrazinyl}-2-isopropyl-3(2H)-pyridazinone], the melting point lay in the range of 148 to 150 °C. Regarding `C=CCNc1nc(-c2ccc(=O)n(C(C)C)n2)c(-c2ccccc2)nc1N` [Example 101, 6-[6-(allylamino)-5-amino-3-phenyl-2-pyrazinyl]-2-isopropyl-3(2H)-pyridazinone], the melting point was in the range of 208 to 210 °C. To `CC(C)n1nc(-c2[nH]c(=O)c(N)nc2-c2ccccc2)ccc1=O` [Example 174, 6-(5-amino-6-oxo-3-phenyl-1,6-dihydro-2-pyrazinyl)-2-isopropyl-3(2H)-pyridazinone] belongs above 250 °C; to `Cn1nc(-c2nc(-n3cccc3)c(N)nc2-c2ccccc2)ccc1=O` [Example 148, 6-[5-amino-3-phenyl-6-(1H-pyrrol-1-yl)-2-pyrazinyl]-2-methyl-3(2H)-pyridazinone], 202 to 205 °C.

`CC(C)n1nc(-c2nc(N3CCN(C)CC3)c(N)nc2-c2ccccc2)ccc1=O` [Example 113, 6-[5-amino-6-(4-methyl-1-piperazinyl)-3-phenyl-2-pyrazinyl]-2-isopropyl-3(2H)-pyridazinone] returned a melting point of 155 to 157 °C.

`CC(C)n1nc(-c2nc(NCCN3CCOCC3)c(N)nc2-c2ccccc2)ccc1=O` [Example 104, 6-(5-amino-6-{[2-(4-morpholinyl)ethyl]amino}-3-phenyl-2-pyrazinyl)-2-isopropyl-3(2H)-pyridazinone] came in with a melting point of 230 to 232.5 °C.
